Where two headings read alike, the source gives them in different places.
Test system: intradermal layer, skin tissue of the rabbit in vivo
Settings: dose 100 μl
Experimental: Moreover, an object of the following experimental conditions is to confirm, when an inflammatory substance is administered to the intradermal layer which is skin tissue of the rabbit in vivo, a presence or absence of an inflammatory response (formation of erythema and eschar, and formation of edema) for each elapsed time (after 24 hours, 48 hours, and 72 hours). In addition, the injection of an injection solution with the needled injector was performed at a constant pressurization rate.
16-week-old male Std: JW/CSK rabbit, already shaved and smooth skin-verified, was used.
An aqueous solution of the following inflammatory substance was used as the dosing liquid and the injection solution.
Inflammatory substance: acetic acid, diluted to a predetermined concentration with distilled water, dose 100 μl
Definitions of numerical values representing the experimental results in the tables with respect to each of erythema and eschar formation and edema formation are as follows.
(Erythema and Eschar Formation)
1 Very slight erythema (barely perceptible erythema)
2 Slight erythema (clearly perceptible erythema)
3 Moderate to severe erythema
4 Severe erythema to eschar formations
1 Very slight edema (barely perceptible edema)
2 Slight edema (edema with edges perceptible due to definite raising)
3 Moderate edema (raised approximately 1 mm)
4 Severe edema (raised 1 mm or more and extending beyond the area of exposure)

[1] = acetic acid 0.25%, Comparative example (needled injector), 24 h
[2] = acetic acid 0.25%, Comparative example (needled injector), 48 h
[3] = acetic acid 0.25%, Comparative example (needled injector), 72 h
[4] = acetic acid 0.25%, Injector 1, 24 h
[5] = acetic acid 0.25%, Injector 1, 48 h
[6] = acetic acid 0.25%, Injector 1, 72 h
[7] = acetic acid 0.5%, Comparative example (needled injector), 24 h
[8] = acetic acid 0.5%, Comparative example (needled injector), 48 h
[9] = acetic acid 0.5%, Comparative example (needled injector), 72 h
[10] = acetic acid 0.5%, Injector 1, 24 h
[11] = acetic acid 0.5%, Injector 1, 48 h
[12] = acetic acid 0.5%, Injector 1, 72 h
[13] = acetic acid 1.0%, Comparative example (needled injector), 24 h
[14] = acetic acid 1.0%, Comparative example (needled injector), 48 h
[15] = acetic acid 1.0%, Comparative example (needled injector), 72 h
[16] = acetic acid 1.0%, Injector 1, 24 h
[17] = acetic acid 1.0%, Injector 1, 48 h
[18] = acetic acid 1.0%, Injector 1, 72 h
[19] = acetic acid 1.5%, Comparative example (needled injector), 24 h
[20] = acetic acid 1.5%, Comparative example (needled injector), 48 h
[21] = acetic acid 1.5%, Comparative example (needled injector), 72 h
[22] = acetic acid 1.5%, Injector 1, 24 h
[23] = acetic acid 1.5%, Injector 1, 48 h
[24] = acetic acid 1.5%, Injector 1, 72 h
[25] = acetic acid 2.0%, Comparative example (needled injector), 24 h
[26] = acetic acid 2.0%, Comparative example (needled injector), 48 h
[27] = acetic acid 2.0%, Comparative example (needled injector), 72 h
[28] = acetic acid 2.0%, Injector 1, 24 h
[29] = acetic acid 2.0%, Injector 1, 48 h
[30] = acetic acid 2.0%, Injector 1, 72 h

## CC(=O)O [Acetic acid, acetic acid]
[1]
  Edema 24 h: 0
  Erythema etc. 24 h: 1
[2]
  Edema 48 h: 0
  Erythema etc. 48 h: 1
[3]
  Edema 72 h: 0
  Erythema etc. 72 h: 1
[4]
  Edema 24 h: 0
  Erythema etc. 24 h: 1
[5]
  Edema 48 h: 0
  Erythema etc. 48 h: 1
[6]
  Edema 72 h: 0
  Erythema etc. 72 h: 1
[7]
  Edema 24 h: 0
  Erythema etc. 24 h: 1
[8]
  Edema 48 h: 0
  Erythema etc. 48 h: 1
[9]
  Edema 72 h: 0
  Erythema etc. 72 h: 1
[10]
  Edema 24 h: 0
  Erythema etc. 24 h: 1
[11]
  Edema 48 h: 0
  Erythema etc. 48 h: 1
[12]
  Edema 72 h: 0
  Erythema etc. 72 h: 1
[13]
  Edema 24 h: 1
  Erythema etc. 24 h: 1
[14]
  Edema 48 h: 1
  Erythema etc. 48 h: 1
[15]
  Edema 72 h: 1
  Erythema etc. 72 h: 1
[16]
  Edema 24 h: 0
  Erythema etc. 24 h: 1
[17]
  Edema 48 h: 0
  Erythema etc. 48 h: 1
[18]
  Edema 72 h: 0
  Erythema etc. 72 h: 1
[19]
  Edema 24 h: 2
  Erythema etc. 24 h: 1
[20]
  Edema 48 h: 2
  Erythema etc. 48 h: 1
[21]
  Edema 72 h: 2
  Erythema etc. 72 h: 1
[22]
  Edema 24 h: 0
  Erythema etc. 24 h: 1
[23]
  Edema 48 h: 0
  Erythema etc. 48 h: 1
[24]
  Edema 72 h: 0
  Erythema etc. 72 h: 1
[25]
  Edema 24 h: 3
  Erythema etc. 24 h: 1
[26]
  Edema 48 h: 3
  Erythema etc. 48 h: 1
[27]
  Edema 72 h: 2
  Erythema etc. 72 h: 1
[28]
  Edema 24 h: 1
  Erythema etc. 24 h: 1
[29]
  Edema 48 h: 1
  Erythema etc. 48 h: 1
[30]
  Edema 72 h: 1
  Erythema etc. 72 h: 1
